6 compounds from ChEMBL document CHEMBL1151514, “Imetit and N-methyl derivatives. The transition from potent agonist to antagonist at histamine H3 receptors.1” (Bioorg Med Chem Lett, 1992) can be followed below.

For experiment [1], the target named is T1, Histamine H3 receptor (Rattus norvegicus, UniProt Q9QYN8). Kind of experiment: The compound was evaluated for antagonistic effect on release of [3H]histamine from rat brain cortical slices with L-[3H]histidine at 0.3 uM. It is filed as functional, tissue-based.
T1 sequence (Q9QYN8 whole entry): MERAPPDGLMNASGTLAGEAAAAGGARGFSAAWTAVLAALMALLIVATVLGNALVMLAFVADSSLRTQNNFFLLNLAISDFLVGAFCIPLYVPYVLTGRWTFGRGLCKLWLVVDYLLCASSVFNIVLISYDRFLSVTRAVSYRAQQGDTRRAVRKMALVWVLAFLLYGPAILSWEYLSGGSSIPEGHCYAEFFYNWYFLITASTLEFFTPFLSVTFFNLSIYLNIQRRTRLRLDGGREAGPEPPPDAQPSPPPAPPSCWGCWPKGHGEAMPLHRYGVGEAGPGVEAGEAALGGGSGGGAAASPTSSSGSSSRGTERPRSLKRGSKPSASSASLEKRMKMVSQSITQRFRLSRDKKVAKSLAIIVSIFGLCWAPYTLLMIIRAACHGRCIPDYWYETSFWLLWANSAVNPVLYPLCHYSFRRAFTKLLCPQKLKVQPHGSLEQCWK
Experiment [2] addresses T1, Histamine H3 receptor. Kind of experiment: Compound was evaluated for antagonistic effect on release of [3H]histamine from rat brain cortical slices with L-[3H]histidine at 0.3 uM. In kind it is functional, tissue-based.
The species entered for the next experiment is Rattus norvegicus. Nature of the experiment: Concentrations required for half-maximal inhibition of tritiated amine release from rat cortical slices. It is filed as functional.
Experiment [3] deals with T1, Histamine H3 receptor. Nature of the experiment: The compound was evaluated for agonistic effect on release of [3H]histamine from rat brain cortical slices with L-[3H]histidine at 0.3 uM. In kind it is functional, tissue-based.
A further experiment relates to Mus musculus. Nature of the experiment: Compound was tested for in vivo in mice which produced a decrease in the brain level of N-tele-methylhistamine when administered orally. It is filed as functional. Conditions: po.

Structures are written as SMILES. Some results are limits rather than exact numbers.

Broadly, the Ki is the dissociation constant of the complex between target and ligand, obtained from inhibition or displacement. Read a high Ki as a looser hold on the target. On Histamine H3 receptor [1], `C/N=C(\NC)SCCc1c[nH]cn1` showed a Ki of 51 nM.

As for `c1nc(CCSC2=NCCN2)c[nH]1`, affinity on Histamine H3 receptor [1] was put at a Ki of 260 nM.

What is called EC50 is the concentration at which the effect is half-maximal. A low value points to greater potency. Regarding `C/N=C(/SCCc1c[nH]cn1)N(C)C`, the Ki on Histamine H3 receptor [2] was ≥ 500 nM. Besides, the midpoint of the response in the experiment filed under Rattus norvegicus, the EC50, lay at 1 nM.

On to `CN(C)C(=N)SCCc1c[nH]cn1`, for which, on Histamine H3 receptor [1], the Ki came out at 500 nM.

By ED50 is commonly meant the dose that gives a 50% effect, or the effect in half of the subjects. High values mean a need for a large dose, low ones an effect at a small dose. On Histamine H3 receptor [3], `Br.CNC(=N)SCCc1c[nH]cn1` came in with an EC50 of 15 nM. For the same compound, the median effective dose (ED50) in the experiment with Mus musculus turned out to be 25 mg/kg.

Consider `Br.N=C(N)SCCc1c[nH]cn1` [IMETIT DIHYDROBROMIDE], for which the 50% effective dose (ED50) in the experiment with Mus musculus was ~1 mg/kg.
